Assays:
[1] = test system: 12 BioMAP® Diversity Plus human cell systems; assay: BioMAP Diversity PLUS phenotypic profiling in 12 primary human cell and co-culture systems; type: cell-based
Protocol: Twelve primary human cell and co-cultures assays were used to assess the effects of dextran sulfate on clinically-relevant protein biomarkers of inflammation, cell growth and fibrosis as part of the quality controlled BioMAP® Diversity PLUS, commercially available service (Eurofins DiscoverX Corporation, Freemont, CA, USA; for full details https://www.discoverx.com). Dextran sulfate was tested in these assays at four concentrations: 4000 nMw 1300 nMw 400 nM and 150 nM. Human primary cells employed in the BioMAP® systems were used at passage 4 or earlier, derived from multiple donors (n=2 to 6), commercially purchased and handled according to the recommendations of the manufacturers. Human blood derived CD14+ monocytes were differentiated into macrophages in vitro before being added to the IMphg system (Eurofins DiscoverX Corporation).
The cell types and stimuli used in each assay system were as follows: 3C system [Human umbilical vein endothelial cells (HUVEC)+(IL-1β, TNFα and IFNγ)], 4H system [HUVEC+(IL-4 and histamine)], LPS system [Peripheral blood mononuclear cells (PBMC) and HUVEC+LPS (TLR4 ligand)], SAg system [PBMC and HUVEC+TCR ligands], BT system [CD19+ B cells and PBMC+(α-IgM and TCR ligands)], BF4T system [bronchial epithelial cells (BEC) and human neonatal dermal fibroblasts (HDFn)+(TNFα and IL-4)], BE3C system [BEC+(IL-1β, TNFα and IFNγ)], CASM3C system [coronary artery smooth muscle cells (CASMC)+(IL-1β, TNFα and IFNγ)], HDF3CGF system [HDFn+(IL-1β, TNFα, IFNγ, EGF, bFGF and PDGF-BB)], KF3CT system [keratinocytes and HDFn+(IL-1β, TNFα, IFNγ and TGFβ)], MyoF system [differentiated lung myofibroblasts+(TNFα and TGFβ)] and IMphg system [HUVEC and M1 macrophages+Zymosan (TLR2 ligand)].
Assays were derived from either single cell types or co-culture systems. Adherent cell types were cultured in 96 or 384-well plates until confluence, followed by the addition of PBMC (SAg and LPS systems). […] Test agents prepared in either DMSO (small molecules; final concentration 0.1%) or PBS (biologics) were added at the indicated concentrations 1 h before stimulation, and cells remained in culture for 24 h or as otherwise indicated (48 h, MyoF system; 72 h, BT system (soluble readouts); 168 h, BT system (secreted IgG)). […] Soluble factors from supernatants were quantified using either HTRF® detection, bead-based multiplex immunoassay or capture ELISA. Overt adverse effects of dextran sulfate on cell proliferation and viability (cytotoxicity) were detected by sulforhodamine B (SRB) staining for adherent cells, and alamarBlue® reduction for cells in suspension. For proliferation assays, individual cell types were cultured at subconfluence and measured at time points optimized for each system (48 h: 3C and CASM3C systems; 72 h: BT and HDF3CGF systems; 96 h: SAg system). Cytotoxicity for adherent cells was measured by SRB (24 h: 3C, 4H, LPS, SAg, BF4T, BE3C, CASM3C, HDF3CGF, KF3CT, and IMphg systems; 48 h: MyoF system), and by alamarBlue® staining for cells in suspension (24 h: SAg system; 42 h: BT system) at the time points indicated.
Biomarker measurements in dextran sulfate-treated samples were divided by the average of the control samples (at least 6 vehicle controls from the same plate) to generate a ratio that was then log10 transformed. Significance prediction envelopes were calculated using historical vehicle control data at a 95% confidence interval. […]

[2] = test system: Human Schwann cells (ATCC CRL-2884™); assay: Gene expression study in cultured human Schwann cells (microarray, IPA network analysis); type: cell-based; conditions: 0.01 mg/ml, 48 hours
Protocol: Human Schwann cells (ATCC CRL-2884™) were cultured in 25 cm^2 culture flasks coated with poly-d-lysine and laminin) in high-glucose DMEM with 10% fetal bovine serum (FBS) (n=8) and incubated at 37° C./5% CO2. Twenty-four house after seeding (Day 0) cells were treated once with either dextran sulfate (0.01 mg/ml in DMEM) or culture media. After 48 hours with treatment, the media were removed and cells were harvested in 2.5 ml Trizol:Water (4:1) solution containing 0.5 ml of chloroform at room temperature (RT). The flasks were inspected under the microscope to ensure full removal of cells. The collected lysates were stored at −80° C.
Lysates were left to equilibrate for 5 minutes at room temperature to permit the complete dissociation of nucleoprotein complexes. 1 ml lysate was removed from each sample and 200 μL of chloroform was added to each and the tube was shaken vigorously. Samples were stored at room temperature for 2-3 minutes and subsequently centrifuged at 12,000×g/15 min at 4° C. The mixture separated into 3 layers: a lower red phenol-chloroform phase, an interphase and a colorless upper aqueous phase. The top % of the aqueous phase (containing the RNA) was transferred to a new clean Eppendorf tube. The RNA was precipitated from the aqueous phase by adding an equal amount of 100% ethanol. The precipitated RNA was fixed onto a Spin Cartridge, washed twice and dried. The RNA was eluted in 50 μL warm RNase-Free Water. The amount and quality of the purified RNA was measured by Nanodrop. The RNA was stored at −80° C. before transfer to Source Bioscience for Gene Array analysis.
The background corrected expression data from each sample were downloaded into a separate file. The background corrected signal was log2 transformed for all samples for statistical analysis. To reduce the false discovery rate in the samples, the signals that were below ‘expression level’ were removed. The ‘below expression’ level was set at 5 for the log2 transformed expression values. (The expression value of the MAPT gene, which is not normally expressed in Schwann cells, was <5. However, the expression of usual ‘control’ gene ACTB (A_32_P137939; ACTB) was comfortably above 5).
MetaboAnalyst (Chong and Xia, MetaboAnalystR: an R package for flexible and reproducible analysis of metabolomics data, Bioinformatics 34(24): 4313-4314 (2018)) was used to analyze the gene expression profiles. […]
Additionally, a preliminary analysis was carried out to screen out genes that were not differentially expressed between any combinations of the three datasets. […] The remaining probe sets were analyzed for fold change and significance using Volcano plots (Qlucore, Lund, Sweden). […]

[3] = Serum total bilirubin in patients before and after dextran sulfate administration; type: in vivo; conditions: human patients with a neurological disease, 2 mg/kg subcutaneous once a week for ten weeks, week 10 vs week 0, p<0.05, FIG. 1
Protocol: Dextran sulfate (Tikomed A B, Viken, Sweden, WO 2016/076780) was administered at 2 mg/kg by […] subcutaneous injection once a week for ten weeks to human patients suffering from a neurological disease.
Peripheral venous blood samples were collected from patients before (week 0) and after dextran sulfate administration (week 5 and week 10) after at least 15 minutes of complete rest, using the standard tourniquet procedure, from the antecubital vein into a single VACUETTE® polypropylene tube containing serum separator and clot activator (Greiner-Bio One GmbH, Kremsmunster, Austria). After 30 mins at room temperature (20-25° C.), blood withdrawals were centrifuged at 1,890×g for 10 min to get serum aliquots.
A serum aliquot of about 300 μl was light-protected and then processed to extract fat-soluble metabolites using a method described in detail (Lazzarino et al., Single-step preparation of selected biological fluids for the high performance liquid chromatographic analysis of fat-soluble vitamins and antioxidants, J Chromatogr A. 2017; 1527: 43-52). Briefly, samples were supplemented with 1 ml of HPLC-grade acetonitrile, vigorously vortexed for 60 sec and incubated at 37° C. for 1 h in a water bath under agitation to allow the full extraction of lipid soluble compounds. […]

[4] = protein level, BioMAP Diversity Plus

Q: Which results are given for Dextran sulfate?
A: overall analysis of the responses of the 12 model systems ([1]; 150-4000 nM, FIG. 3): modulated inflammatory and immunoregulatory cytokines and molecules, tissue remodeling pathways (including activation of matrix degrading enzymes) and hemostasis activity; cytotoxicity (SRB staining / alamarBlue reduction) ([1]; all human culture systems evaluated, 150, 400, 1300 and 4000 nM): no cytotoxicity evident; CXCL9 levels [1, 4]: reduced levels; CXCL10 levels [1, 4]: reduced levels; CXCL11 levels [1, 4]: reduced levels; effect on inflammatory genes (molecular network analysis) ([2]; FIG. 5B): resolution of the normal inflammatory response; expression of the anti-fibrotic proteoglycan decorin ([2]; TGFβ-regulated gene network): upregulating; share of molecules of the TGFβ-regulated fibrosis network whose expression was regulated ([2]; 14 of 165 molecules, p<0.001): 8.5%; number of molecules of the TGFβ-regulated mechanistic network responsible for fibrosis whose expression was regulated ([2]; of 165 molecules, p<0.001): 14; circulating levels of total bilirubin (free bilirubin + conjugated bilirubin) [3]: significant time-dependent decrease

From US20230390324A1, “TREATMENT OF FATTY LIVER DISEASES” (TX MEDIC AB, priority 2020, published 2023)
